Results: patent US10251396B2, “Amide compound and use of same for noxious arthropod control” (SUMITOMO CHEMICAL COMPANY, LIMITED, priority 2014, dated 2019)

Key:
Format in all cases: in vivo
Blattella germanica = experiment: Test Example 1: spray knockdown test on Blattella germanica; conditions: 0.25 h; 2.0% w/v in isopropyl alcohol/kerosine=1/9, 1.5 mL sprayed, ten Blattella germanica, within 15 minutes; read-out: knockdown ratio of test vermin within 15 minutes
Description: A formulation containing each of the compounds (1), (3), (4), (5), (8), (11), (12) and (21) prepared in accordance with Formulation Example 7 was diluted with an isopropyl alcohol/kerosine=1/9 mixed liquid so that the concentration of each compound became 2.0% w/v, to obtain a diluted solution. Ten vermin Blattella germanica (male female each five vermin) were allowed to release in a container for a test in which a butter was applied on an inner wall (diameter 8.75 cm, height 7.5 cm, bottom face covered with 16 mesh wire net), and the container was arranged on a bottom of a chamber for a test (bottom surface: 46 cm×46 cm, height: 70 cm). From a height of 60 cm from an upper surface of the container, 1.5 mL of the diluted solution was sprayed using a spray gun (spraying pressure 0.42 kg/cm^2). Thirty seconds after spraying, the container was taken out from the chamber for a test, the number of vermin which had been knocked down was counted for 15 minutes with time, and a knockdown ratio was obtained. The knockdown ratio was calculated by the following expression. Knockdown ratio (%)=(number of knocked down vermin/number of test vermin)×100 As a result, the knockdown ratio of test vermin within 15 minutes was 80% or more, in treatment with the compounds (1), (3), (4), (5), (8), (11), (12) and (21), respectively.

Aphis gossypii = experiment: Test Example 5: foliar spray test on Aphis gossypii on cucumber; conditions: 500 ppm diluted solution, 20 mL/cup sprayed to cucumber, six days after spraying
Description: A formulation containing the compound (4) prepared in accordance with Formulation Example 15 was diluted with water so that the concentration became 500 ppm to obtain a diluted solution. On the other hand, a cucumber was planted in a polyethylene cup, and grown until a first true leaf developed. About 20 vermin of Aphis gossypii was parasitized therein. After one day, the diluted solution was sprayed to the cucumber at a ratio of 20 mL/cup. Six days after spraying, the number of live or dead vermin of Aphis gossypii was investigated, and a controlling value was obtained by the following expression. Controlling value (%)={1−(Cb×Tai)/(Cai×Tb)}×100 In addition, letters in the expression indicate the following meanings.

Plutella xylostella = experiment: Test Example 6: cabbage foliar spray test on second instar larvae of Plutella xylostella; conditions: 500 ppm diluted solution, 20 mL/cup sprayed to cabbage, 25° C., after 5 days
Description: A formulation containing the compound (21) prepared in accordance with Formulation Example 15 was diluted with water so that the concentration became 500 ppm, to prepare a diluted solution. On the other hand, the diluted solution was sprayed to a cabbage at a stage of three leaves planted in a polyethylene cup at a ratio of 20 mL/cup. After spraying, the plant was air-dried, foliage portions were cut and accommodated into a 50 mL cup, 5 second instar larvae of Plutella xylostella were released, and the cup was covered. This was stored at 25° C., and after 5 days, the number of dead vermin was counted, and a dead vermin ratio was obtained by the following expression.

Structure (SMILES) | pest or weed control at 2 % strength (Blattella germanica) [%] | controlling value (Aphis gossypii) [%] | dead vermin ratio (Plutella xylostella) [%]
CC(C)CNC(=O)c1cc(COCc2ccccc2)on1 [compound (1)] | ≥ 80 |  | 
C=C(C)CNC(=O)c1cc(COCc2ccccc2)on1 [compound (3)] | ≥ 80 |  | 
COC(C)CNC(=O)c1cc(COCc2ccccc2)on1 (stereo not shown) [compound (4)] | ≥ 80 | ≥ 90 | 
COCCNC(=O)c1cc(COCc2ccccc2)on1 [compound (5)] | ≥ 80 |  | 
COC(C)(C)CNC(=O)c1cc(COCc2ccccc2)on1 [compound (8)] | ≥ 80 |  | 
COC(CNC(=O)c1cc(COCc2ccccc2)on1)OC [compound (11)] | ≥ 80 |  | 
COCC(COC)NC(=O)c1cc(COCc2ccccc2)on1 [compound (12)] | ≥ 80 |  | 
COC(C)CNC(=O)c1cc(COCc2ccc3ccccc3c2)on1 (stereo not shown) [compound (21)] | ≥ 80 |  | ≥ 80
